In patent US20200197354A1, “METHODS, COMPOSITIONS AND CONTAINERS FOR REDUCING SOLID FORM QUERCETIN DEGRADATION AND 2,4,6-TRIHYDROXYBENZOIC ACID TOXIC BYPRODUCT THEREOF” (PUBLIC JOINT STOCK COMPANY "SCIENTIFICINDUSTRIALCENTRE …, priority 2018, published 2020):
Values after ≈ are worked out from the molar mass of the structure shown.

How the values were obtained:
[1] = human
From the text: Potential human toxicity of 2,4,6-THBA can be related to its toxicity based on studies with Daphnia.

CDK6 = CDK6 (Homo sapiens, UniProt Q00534); conditions: cited from earlier work
[2] = test system: Pseudokirchneriella subcapitata; conditions: cited from earlier work
CDK2 = CDK2 (Homo sapiens, UniProt P24941); conditions: cited from earlier work
CDK4 = CDK4 (Homo sapiens, UniProt P11802); conditions: cited from earlier work
Daphnia magna [3] = conditions: in vivo, 48 h
Method: Toxicity is determined using a Daphnia magna mobility assay as described (Kamaya et al., 2005). Neonates (<24 h old) from 2-3-week-old mothers are placed in a 50 ml glass beaker containing 40 ml of a test solution. All experiments for exposure and controls without chemicals are made in four replicates and performed at 21±0.3° C. under 16 h light: 8 h dark photoperiod. Immobility is used as the endpoint for determining acute toxicity; the daphnids showing no movement within 15 s after gentle stirring are defined to be immobile. After 24 and 48 h, the number of immobile daphnids is recorded to determine the concentration able to achieve 50% immobilization and it is indicated as EC50. The EC50 values are calculated by Probit analyses (USEPA, 1993), based on nominal concentrations and compared to similar experiments using benzoic acid and 2,4,6-THBA.

CDK1 = CDK1 (Homo sapiens, UniProt P06493); conditions: cited from earlier work
HCT-116 human cells = conditions: cited from earlier work
[4] = test system: Pseudokirchneriella subcapitata; conditions: 48 h
Method: Toxicity is determined using green algae Pseudokirchneriella subcapitata growth rate assay as described (Lee and Chen, 2009). Algal inoculum are withdrawn from the chemostat operated under a steady state, and transferred into 300 mL BOD bottles, together with dilution water (with growth medium) and toxicants. The BOD bottles are filled completely, leaving no headspace. A water seal is provided to ensure a closed test environment. The bottles are then placed on an orbital shaker operated at 100 rpm. Temperature and light intensity are kept at 24±1©° C. and 65 microEm−2 s−1 (±10%), respectively. US EPA bottle medium, with no EDTA content is used for toxicity testing. A sample of lyophilized quercetin (10%)/PVP (90%) is resuspended in solution. Two response endpoints are used to evaluate the toxicity of the resuspended quercetin; the final yield and algal growth rate based on cell density counts. […] The initial inoculated cell density is 15,000 cells/mL and the duration of the test is 48 h.

Daphnia magna [5] = conditions: cited from earlier work
[6] = human oral exposure; cited from earlier work
[7] = humans, cited from earlier work

Sequence of CDK1 (P06493 whole entry, species assumed): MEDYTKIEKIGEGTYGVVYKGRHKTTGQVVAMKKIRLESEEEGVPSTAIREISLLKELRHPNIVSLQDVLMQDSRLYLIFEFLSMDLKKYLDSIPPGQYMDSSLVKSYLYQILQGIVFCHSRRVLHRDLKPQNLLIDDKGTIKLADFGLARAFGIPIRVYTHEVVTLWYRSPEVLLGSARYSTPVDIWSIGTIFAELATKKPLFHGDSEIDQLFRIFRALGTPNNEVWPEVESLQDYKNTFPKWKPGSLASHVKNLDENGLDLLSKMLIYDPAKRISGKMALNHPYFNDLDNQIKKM
Sequence of CDK1 (P14635 whole entry partner, species assumed): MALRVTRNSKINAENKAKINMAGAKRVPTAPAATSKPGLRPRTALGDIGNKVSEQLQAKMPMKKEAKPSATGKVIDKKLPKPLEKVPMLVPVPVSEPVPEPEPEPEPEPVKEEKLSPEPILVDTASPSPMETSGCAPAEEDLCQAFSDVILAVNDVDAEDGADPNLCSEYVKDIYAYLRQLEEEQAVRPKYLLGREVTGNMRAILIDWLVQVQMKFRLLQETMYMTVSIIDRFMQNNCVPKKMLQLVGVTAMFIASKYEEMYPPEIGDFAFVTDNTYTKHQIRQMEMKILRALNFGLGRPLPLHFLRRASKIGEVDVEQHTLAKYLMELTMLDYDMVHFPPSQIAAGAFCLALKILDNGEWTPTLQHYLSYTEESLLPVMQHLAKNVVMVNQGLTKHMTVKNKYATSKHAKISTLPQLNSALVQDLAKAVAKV
Sequence of CDK6 (Q00534 whole entry): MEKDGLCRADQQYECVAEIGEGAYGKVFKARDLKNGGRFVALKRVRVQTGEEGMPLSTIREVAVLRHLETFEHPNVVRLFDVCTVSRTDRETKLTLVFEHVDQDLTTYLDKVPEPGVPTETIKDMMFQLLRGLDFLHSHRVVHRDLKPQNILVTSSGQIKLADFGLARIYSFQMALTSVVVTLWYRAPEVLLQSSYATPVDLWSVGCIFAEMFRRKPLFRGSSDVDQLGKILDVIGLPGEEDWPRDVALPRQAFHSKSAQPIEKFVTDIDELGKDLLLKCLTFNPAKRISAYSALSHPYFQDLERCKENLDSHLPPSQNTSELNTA
Sequence of CDK6 (P24385 whole entry partner): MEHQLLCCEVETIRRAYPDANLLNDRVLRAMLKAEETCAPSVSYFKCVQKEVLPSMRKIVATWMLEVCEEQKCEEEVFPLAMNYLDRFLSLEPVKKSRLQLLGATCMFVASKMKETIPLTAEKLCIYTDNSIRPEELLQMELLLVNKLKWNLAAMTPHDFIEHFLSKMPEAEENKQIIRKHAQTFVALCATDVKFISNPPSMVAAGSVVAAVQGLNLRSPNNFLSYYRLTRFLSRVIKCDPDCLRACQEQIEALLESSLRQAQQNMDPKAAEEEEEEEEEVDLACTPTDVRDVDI
Sequence of CDK4 (P11802 whole entry): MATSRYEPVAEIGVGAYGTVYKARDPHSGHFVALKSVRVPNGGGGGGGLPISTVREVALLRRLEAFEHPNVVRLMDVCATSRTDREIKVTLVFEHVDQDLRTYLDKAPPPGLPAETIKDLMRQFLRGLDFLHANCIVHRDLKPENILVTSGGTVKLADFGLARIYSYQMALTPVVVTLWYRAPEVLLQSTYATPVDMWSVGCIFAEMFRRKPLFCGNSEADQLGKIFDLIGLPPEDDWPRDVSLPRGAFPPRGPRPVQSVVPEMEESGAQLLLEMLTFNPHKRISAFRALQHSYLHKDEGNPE
Sequence of CDK4 (P24385 whole entry partner): as the sequence (P24385 whole entry partner) above

Row | SMILES | RfD estimated from Daphnia EC50 [1] [mg/kg/day] | RfD-based toxicity relative to benzoic acid [1] | RfD-based toxicity relative to quercetin [1] [times] | inhibitory effect on CDK6 (CDK6) | EC50, suppression of growth [2] [µg/mL] | inhibitory effect on CDK2 (CDK2) | inhibitory effect on CDK4 (CDK4) | toxicity relative to benzoic acid (Daphnia magna [3]) | inhibitory effect on CDK1 (CDK1) | cytotoxicity compared to other salicylic acid metabolites (HCT-116 human cells) | toxicity relative to benzoic acid and its other derivatives [4] [times] | EC50 at 48 h, mobility assay (Daphnia magna [5]) [µg/mL] | LC50 in 48 h, immobilization test (Daphnia magna [5]) [µg/mL] | RfD / toxicity in humans [6] | elimination half-life ([7]; after ingestion in foods or supplements) [h] | bioavailability of quercetin [7]
1 | O=C(O)c1c(O)cc(O)cc1O [2,4,6-THBA, 2,4,6-trihydroxybenzoic acid] | 0.02 | more than 50 times | 700 | strong inhibitory effect | 0.546 | strong inhibitory effect | strong inhibitory effect | about 500 times | strong inhibitory effect | more cytotoxic | 70 | 1.7 (≈ 9.99 µM) | 1.7 (≈ 9.99 µM) | – | – | –
2 | O=C(O)c1ccccc1 [benzoic acid] | – | – | – | – | 36 | – | – | – | – | – | – | 860 (≈ 7040 µM) | – | 1 mg/kg/day | – | –
3 | O=c1c(O)c(-c2ccc(O)c(O)c2)oc2cc(O)cc(O)c12 [quercetin, 2-(3,4-dihydroxyphenyl)-3,5,7-trihydroxy-4H-chromen-4-one] | – | – | – | – | – | – | – | – | – | – | – | – | – | more than 15 mg/kg/day | 1 to 2 | 0-50%
